Measured values taken from patent publication US20220073536A1 (Rigel Pharmaceuticals, Inc., priority 2003, published 2022).
Counter-ions that a name gives are not always drawn.

tested on: cultured human mast cells (CHMC); experiment: CHMC low cell density IgE activation: tryptase assay; type: cell-based; settings: Homo sapiens, Mast cell, low cell density CHMC, IgE activation, tryptase release, 8 pt; read-out: LD Tryptase, CHMC, IgE, 8 pt
How it was run: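 Anti-IgE-driven degranulation of cultured human mast cells at low density, 1000–1500 cells/well, was induced over 30 min at 37 °C. It was scored by supernatant tryptase activity on a fluorogenic substrate.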

IC50, < 10 µM:
COc1ccc(Nc2nc(Nc3ccc4c(cnn4C(C)C)c3)ncc2F)cc1Cl [Compound 779, N4-(3-Chloro-4-methoxyphenyl)-5-fluoro-N2-[1-(1-methylethyl)indazol-5-yl]-2,4-pyrimidinediamine]
CC(C)n1ncc2cc(Nc3ncc(F)c(Nc4ccc(Cl)c(Cl)c4)n3)ccc21 [Compound 780, N4-(3,4-Dichlorophenyl)-5-fluoro-N2-[1-(1-methylethyl)indazol-5-yl]-2,4-pyrimidinediamine]
CC(C)n1ncc2cc(Nc3ncc(F)c(Nc4ccc5c(c4)NC(=O)C(C)(C)O5)n3)ccc21 [Compound 781, N4-(2,2-Dimethyl-3-oxo-4H-benz[1,4]oxazin-6-yl)-5-fluoro-N2-[1-(1-methylethyl)indazol-5-yl]-2,4-pyrimidinediamine]
COc1cc(Nc2nc(Nc3ccc4c(cnn4C(C)C)c3)ncc2F)ccc1F [Compound 782, 5-Fluoro-N4-(4-fluoro-3-methoxyphenyl)-N2-[1-(1-methylethyl)indazol-5-yl]-2,4-pyrimidinediamine]
COc1ccc(Nc2nc(Nc3ccc4cnn(C(C)C)c4c3)ncc2F)cc1Cl [Compound 783, N4-(3-Chloro-4-methoxyphenyl)-5-fluoro-N2-[1-(1-methylethyl)indazol-6-yl]-2,4-pyrimidinediamine]
CC(C)n1ncc2ccc(Nc3ncc(F)c(Nc4ccc(Cl)c(Cl)c4)n3)cc21 [Compound 784, N4-(3,4-Dichlorophenyl)-5-fluoro-N2-[1-(1-methylethyl)indazol-6-yl]-2,4-pyrimidinediamine]
CC(C)n1ncc2ccc(Nc3ncc(F)c(Nc4ccc5c(c4)NC(=O)C(C)(C)O5)n3)cc21 [Compound 785, N4-(2,2-Dimethyl-3-oxo-4H-benz[1,4]oxazin-6-yl)-5-fluoro-N2-[1-(1-methylethyl)indazol-6-yl]-2,4-pyrimidinediamine]
CC(C)n1ncc2ccc(Nc3ncc(F)c(Nc4ccc5c(c4)NC(=O)[C@H](C)O5)n3)cc21 [Compound 786, (S)-N4-[2-Methyl-3-oxo-2H,4H-benz[1,4]oxazin-6-yl]-5-fluoro-N2-[1-(1-methylethyl)indazol-6-yl]-2,4-pyrimidinediamine]
Cn1nc(N)c2cc(Nc3ncc(F)c(Nc4ccc(Cl)c(Cl)c4)n3)ccc21 [Compound 805, N2-(3-Amino-1-methylindazol-5-yl)-N4-(3,4-dichlorophenyl)-5-fluoro-2,4-pyrimidinediamine]
Cn1nc(N)c2cc(Nc3ncc(F)c(Nc4ccc5c(c4)NC(=O)C(C)(C)O5)n3)ccc21 [Compound 806, N2-(3-Amino-1-methylindazol-5-yl)-N4-(2,2-dimethyl-3-oxo-4H-benz[1,4]oxazin-6-yl)-5-fluoro-2,4-pyrimidinediamine]
CC(=O)NCCCn1ncc2cc(Nc3ncc(F)c(Nc4ccc(Cl)c(Cl)c4)n3)ccc21 [Compound 820, N2-[1-[3-(N-Acetylamino)propyl]indazol-5-yl]-N4-(3,4-dichlorophenyl)-5-fluoro-2,4-pyrimidinediamine]
CC(=O)NCCCn1ncc2cc(Nc3ncc(F)c(Nc4ccc5c(c4)NC(=O)C(C)(C)O5)n3)ccc21 [Compound 821, N2-[1-[3-(N-Acetylamino)propyl]indazol-5-yl]-N4-(2,2-dimethyl-3-oxo-4H-benz[1,4]oxazin-6-yl)-5-fluoro-2,4-pyrimidinediamine]
CC(=O)NCCCn1ncc2cc(Nc3ncc(F)c(Nc4ccc5c(n4)NC(=O)C(C)(C)O5)n3)ccc21 [Compound 822, N2-[1-[3-(N-Acetylamino)propyl]indazol-5-yl]-N4-(2,2-dimethyl-3-oxo-4H-5-pyrid[1,4]oxazin-6-yl)-5-fluoro-2,4-pyrimidinediamine]
COc1ccc(Nc2nc(Nc3ccc4c(cnn4CCCN)c3)ncc2F)cc1Cl [Compound 823, N2-[1-(3-Aminopropyl)indazol-5-yl]-N4-(3-chloro-4-methoxyphenyl)-5-fluoro-2,4-pyrimidinediamine]
NCCCn1ncc2cc(Nc3ncc(F)c(Nc4ccc(Cl)c(Cl)c4)n3)ccc21 [Compound 824, N2-[1-(3-Aminopropyl)indazol-5-yl]-N4-(3,4-dichlorophenyl)-5-fluoro-2,4-pyrimidinediamine]
CC1(C)Oc2ccc(Nc3nc(Nc4ccc5c(cnn5CCCN)c4)ncc3F)cc2NC1=O [Compound 825, N2-[1-(3-Aminopropyl)indazol-5-yl]-N4-(2,2-dimethyl-3-oxo-4H-benz[1,4]oxazin-6-yl)-5-fluoro-2,4-pyrimidinediamine]
C[C@@H]1Oc2ccc(Nc3nc(Nc4ccc5c(cnn5CCCN)c4)ncc3F)cc2NC1=O [Compound 826, (S)-N2-[1-(3-Aminopropyl)indazol-5-yl]-5-fluoro-N4-(2-methyl-3-oxo-2H,4H-benz[1,4]oxazin-6-yl)-2,4-pyrimidinediamine]
COc1ccc(Nc2nc(Nc3ccc4c(cnn4CCCO)c3)ncc2F)cc1Cl [Compound 828, N4-(3-Chloro-4-methoxyphenyl)-5-fluoro-N2-[1-(3-hydroxypropyl)indazol-5-yl]-2,4-pyrimidinediamine Bis p-Toluenesulfonic Acid Salt]
COc1ccc(Nc2nc(Nc3ccc4c(cnn4CCCNS(=O)(=O)C(F)(F)F)c3)ncc2F)cc1Cl [Compound 840, N4-(3-Chloro-4-methoxyphenyl)-5-fluoro-N2-[1-[3-(N-trifluoromethylsulfonylamino)propyl]indazol-5-yl]-2,4-pyrimidinediamine]
O=S(=O)(NCCCn1ncc2cc(Nc3ncc(F)c(Nc4ccc(Cl)c(Cl)c4)n3)ccc21)C(F)(F)F [Compound 841, N4-(3,4-Dichlorophenyl)-5-fluoro-N2-[1-[3-(N-trifluoromethylsulfonylamino)propyl]indazol-5-yl]-2,4-pyrimidinediamine]
CC1(C)Oc2ccc(Nc3nc(Nc4ccc5c(cnn5CCCNS(=O)(=O)C(F)(F)F)c4)ncc3F)cc2NC1=O [Compound 842, N4-(2,2-Dimethyl-3-oxo-4H-benz[1,4]oxazin-6-yl)-5-fluoro-N2-[1-[3-(N-trifluoromethylsulfonylamino)propyl]indazol-5-yl]-2,4-pyrimidinediamine]
C[C@@H]1Oc2ccc(Nc3nc(Nc4ccc5c(cnn5CCCNS(=O)(=O)C(F)(F)F)c4)ncc3F)cc2NC1=O [Compound 843, (S)-5-Fluoro-N4-(2-methyl-3-oxo-2H,4H-benz[1,4]oxazin-6-yl)-N2-[1-[3-(N-trifluoromethylsulfonylamino)propyl]indazol-5-yl]-2,4-pyrimidinediamine]

same assay, conditions: low cell density CHMC, IgE activation, tryptase release, 3 pt; read-out: LD Tryptase, CHMC, IgE, 3 pt

IC50, < 10 µM:
Cn1nc(N)c2cc(Nc3ncc(F)c(Nc4ccc5c(n4)NC(=O)C(C)(C)O5)n3)ccc21 [Compound 837, N2-(3-Amino-1-methylindazol-5-yl)-N4-(2,2-dimethyl-3-oxo-4H-5-pyrid[1,4]oxazin-6-yl)-5-fluoro-2,4-pyrimidinediamine]
CC1(C)Oc2ccc(Nc3nc(Nc4ccc5c(cnn5CCCO)c4)ncc3F)nc2NC1=O [Compound 838, N4-(2,2-Dimethyl-3-oxo-4H-5-pyrid[1,4]oxazin-6-yl)-5-fluoro-N2-[1-(3-hydroxypropyl)indazol-5-yl]-2,4-pyrimidinediamine]
COCCCn1ncc2ccc(Nc3ncc(F)c(Nc4ccc5c(n4)NC(=O)C(C)(C)O5)n3)cc21 [Compound 839, N4-(2,2-Dimethyl-3-oxo-4H-5-pyrid[1,4]oxazin-6-yl)-5-fluoro-N2-[1-(3-methoxypropyl)indazol-6-yl]-2,4-pyrimidinediamine]

same assay, conditions: low cell density CHMC, IgE activation, tryptase release, 8 pt; read-out: LD Tryptase, CHMC, IgE, 8 pt

IC50, < 10 µM:
Cc1nn(C)c2cc(Nc3ncc(F)c(Nc4ccc5c(n4)NC(=O)C(C)(C)O5)n3)ccc12 [Compound 812, N2-(1,3-Dimethylindazol-6-yl)-N4-(2,2-dimethyl-3-oxo-4H-5-pyrid[1,4]oxazin-6-yl)-5-fluoro-2,4-pyrimidinediamine]
Cc1n[nH]c2cc(Nc3ncc(F)c(Nc4ccc5c(n4)NC(=O)C(C)(C)O5)n3)ccc12 [Compound 813, N4-(2,2-Dimethyl-3-oxo-4H-5-pyrid[1,4]oxazin-6-yl)-5-fluoro-N2-(3-methyl-1H-indazol-6-yl)-2,4-pyrimidinediamine]
COCCCn1ncc2cc(Nc3ncc(F)c(Nc4ccc5c(n4)NC(=O)C(C)(C)O5)n3)ccc21 [Compound 814, N4-(2,2-Dimethyl-3-oxo-4H-5-pyrid[1,4]oxazin-6-yl)-5-fluoro-N2-[1-(3-methoxypropyl)indazol-5-yl]-2,4-pyrimidinediamine]
COc1ccc(Nc2nc(Nc3ccc4c(cnn4CCCN4C(=O)c5ccccc5C4=O)c3)ncc2F)cc1Cl [Compound 815, N4-(3-Chloro-4-methoxyphenyl)-5-fluoro-N2-[1-[3-(N-phthalimidopropyl)]indazol-5-yl]-2,4-pyrimidinediamine]
CC1(C)Oc2ccc(Nc3nc(Nc4ccc5c(cnn5CCCN5C(=O)c6ccccc6C5=O)c4)ncc3F)cc2NC1=O [Compound 817, N4-(2,2-Dimethyl-3-oxo-4H-benz[1,4]oxazin-6-yl)-5-fluoro-N2-[1-[3-(N-phthalimidopropyl)]indazol-5-yl]-2,4-pyrimidinediamine]
C[C@@H]1Oc2ccc(Nc3nc(Nc4ccc5c(cnn5CCCN5C(=O)c6ccccc6C5=O)c4)ncc3F)cc2NC1=O [Compound 818, (S)-5-Fluoro-N4-(2-methyl-3-oxo-2H,4H-benz[1,4]oxazin-6-yl)-N2-[1-[3-(N-phthalimidopropyl)]indazol-5-yl]-2,4-pyrimidinediamine]
Cn1nc(N)c2cc(Nc3ncc(F)c(Nc4ccc5c(n4)NC(=O)C(C)(C)O5)n3)ccc21 [Compound 837, N2-(3-Amino-1-methylindazol-5-yl)-N4-(2,2-dimethyl-3-oxo-4H-5-pyrid[1,4]oxazin-6-yl)-5-fluoro-2,4-pyrimidinediamine]
CC1(C)Oc2ccc(Nc3nc(Nc4ccc5c(cnn5CCCO)c4)ncc3F)nc2NC1=O [Compound 838, N4-(2,2-Dimethyl-3-oxo-4H-5-pyrid[1,4]oxazin-6-yl)-5-fluoro-N2-[1-(3-hydroxypropyl)indazol-5-yl]-2,4-pyrimidinediamine]
COCCCn1ncc2ccc(Nc3ncc(F)c(Nc4ccc5c(n4)NC(=O)C(C)(C)O5)n3)cc21 [Compound 839, N4-(2,2-Dimethyl-3-oxo-4H-5-pyrid[1,4]oxazin-6-yl)-5-fluoro-N2-[1-(3-methoxypropyl)indazol-6-yl]-2,4-pyrimidinediamine]

IC50, > 10 µM:
O=C1c2ccccc2C(=O)N1CCCn1ncc2cc(Nc3ncc(F)c(Nc4ccc(Cl)c(Cl)c4)n3)ccc21 [Compound 816, N4-(3,4-Dichlorophenyl)-5-fluoro-N2-[1-[3-(N-phthalimidopropyl)]indazol-5-yl]-2,4-pyrimidinediamine]
